Measured values: paper PMC11984392, “EphA2-targeted alpha-particle theranostics for enhancing PDAC treatment” (Theranostics, 2025)
Read-outs that look alike come from different tables or passages of the source. *1 amine or outer side, *2 acyl side, *3 side chain or, on linkers, in order; H or OH if unused. Where a SMILES comes first, the peptide text is derived from it. Bridges are numbered along the chain shown (N, C = ends). [ ]: non-standard residue; d: D form. The star is where a group is joined. TATA = O=C(CC[*:1])N1CN(C(=O)CC[*:2])CN(C(=O)CC[*:3])C1; NOTA = O=C(O)CN1CCN(CC(=O)O)CCN(CC(=O)*)CC1; Hyp = O=C(O)[C@@H]1C[C@@H](O)CN1; hArg = N=C(N)NCCCC[C@H](N)C(=O)O; PEG2 = NCCOCCOCCC(=O)O; Sar = CNCC(=O)O

Key:
[1] = system: Panc1 tumor xenografts; test: Whole-body dynamic PET pharmacokinetics; format: in vivo, NSG mice; conditions: ~250 µCi i.v., remaining constant until 90 min
Description: Dynamic PET images were acquired on a Simultaneous 7T Bruker PET-MR scanner to evaluate the pharmacokinetics of [^68Ga]AJ201. Mice bearing Panc1 tumor xenografts were anesthetized under 2.5% isoflurane and a catheter was fixed in the tail vein before being secured on the PET-MR bed. An activity of ~250 µCi (9.3 MBq; 0.5 to 0.8 nmol) of [^68Ga]AJ201 was administered intravenously and whole-body PET dynamic scans were performed. Dynamic PET scans were initiated one min before radiotracer injection and acquired at varying intervals to capture early and late-phase kinetics: every 30 s from -1 to 5 min, every min from 5 to 15 min, every 3 min from 15 to 30 min, every 5 min from 30 to 60 min, and every 10 min from 60 to 90 min. The acquired PET data were reconstructed and corrected for radioactive decay and dead time using ParaVision 360 V2 by Bruker. The percentage of injected dose per cc (%ID/cc) values were obtained by drawing ROI on the tumor, muscle, heart, liver and kidney using PMOD software, and image fusion and visualization were also performed using PMOD software.

[2] = Ex vivo biodistribution; format: in vivo, NSG mice; conditions: both sexes, NSG, mouse, total radioactivity, 60 min p.i., mean ± SEM (n = 4 or 5)
Description: (§1) Animal studies were performed under Johns Hopkins University Animal Care and Use Committee (ACUC)-approved protocol (Principal investigator: Sridhar Nimmagadda, Ph.D. and Protocol number M021M175). Male and Female NSG mice (5-6 weeks old) were purchased from JHU immunocompromised core and used to establish xenografts by administering cells subcutaneously (top right flank, unless otherwise noted) to form various tumor models within 3-4 weeks. Following cell numbers were used: Panc1, AsPC1, BxPC3 (1 M), Hs766T and SU8686 (2 M), CFPAC and Panc1005 (5 M). Imaging or biodistribution studies (n = 3-5) were conducted on mice with tumor volumes of 100-200 mm^3. The Panc1 orthotopic tumor model was established by surgically implanting a 3-5 mm^3 section of Panc1 tumor xenograft directly onto the pancreas. The implanted tumors were allowed to grow and were ready for imaging after 10 days of implantation.
(§2) Mice with 100-200 mm^3 tumor volume were used for ex vivo biodistribution studies. For radiotracer pharmacokinetics and dosimetry studies, mice with Panc1 tumor xenograft received ~80 µCi (2.96 MBq) [^68Ga]AJ201 and were sacrificed at pre-determined time points (5, 30, 60, 90 and 120 min). All other mice were injected with ~50 µCi (1.85 MBq; 0.2 to 0.5 nmol) Ga-68 labeled radiotracer and were sacrificed at 60 min. The selected tissues were collected, weighed, counted, and their %ID/g values calculated for biodistribution analysis. For pharmacokinetics and dosimetry studies, selected tissues included blood, muscle, tumor, thymus, heart, lung, liver, pancreas, stomach, small intestine, large intestine, spleen, adrenals, kidney, bladder, femur, brain and tumor xenografts. For other studies, selected tissues were blood, muscle, tumor, heart, lung, liver, pancreas, small intestine, spleen, kidney.

[3] = system: CFPAC tumor xenografts; test: Ex vivo biodistribution; format: in vivo, NSG mice; conditions: CFPAC xenograft; 60 min p.i.; mean ± SEM (n = 4 or 5)
Description: as §1, §2

[4] = PET tumor uptake (SUV) of [68Ga]AJ201; format: in vivo; conditions: total radioactivity

CC(C)C[C@@H]1NC(=O)[C@@H]2CSCCC(=O)N3CN(CN(C3)C(=O)CCSC[C@H](NC(=O)[C@H](CC(=O)O)NC(=O)[C@H](CCCCNC(=N)N)NC(=O)[C@H](C)NC(=O)CNC(=O)CN(C)C(=O)CN(C)C(=O)CN(C)C(=O)[C@H](CCCNC(=N)N)NC(=O)CNC(=O)CCOCCOCCNC(=O)CN3CCN(CC(=O)O)CCN(CC(=O)O)CC3)C(=O)N3C[C@H](O)C[C@H]3C(=O)N[C@@H](CC(C)C)C(=O)N[C@@H](C(C)C)C(=O)N[C@@H](CC(N)=O)C(=O)N3CCC[C@H]3C(=O)N[C@@H](CC(C)C)C(=O)N2)C(=O)CCSC[C@@H](C(N)=O)NC(=O)[C@H](CCCCNC(=N)N)NC(=O)[C@H](Cc2c[nH]c3ccccc23)NC(=O)[C@@H](CC(=O)O)NC(=O)[C@@H]2CCCN2C(=O)[C@H](Cc2c[nH]cn2)NC1=O [[^68Ga]AJ201, metal not drawn] ({NOTA-PEG2}-GR[Sar][Sar][Sar]GA[hArg]DC[Hyp]LVNPLCLHP[dD]W[hArg]C-NH2; linker 10-17-24 via TATA)
Time of peak tumor radioactivity (ROI analysis) [1]: 30 min | tissue uptake at 1 h ([2]; blood, AsPC1 xenograft, read-out: Blood uptake): 3.32 ± 0.24 %ID/g | tissue uptake at 1 h ([2]; blood, BxPC3 xenograft, read-out: Blood uptake): 0.58 ± 0.04 %ID/g | tissue uptake at 1 h ([2]; blood, CFPAC xenograft, read-out: Blood uptake): 0.69 ± 0.21 %ID/g | tissue uptake at 1 h ([2]; blood, Hs766T xenograft, read-out: Blood uptake): 1.39 ± 0.3 %ID/g | tissue uptake at 1 h ([2]; blood, Panc1005 xenograft, read-out: Blood uptake): 0.44 ± 0.05 %ID/g | tissue uptake at 1 h ([2]; blood, Su8686 xenograft, read-out: Blood uptake): 0.71 ± 0.18 %ID/g | tissue uptake at 1 h ([2]; heart, AsPC1 xenograft, read-out: Heart uptake): 1.25 ± 0.1 %ID/g | tissue uptake at 1 h ([2]; heart, CFPAC xenograft, read-out: Heart uptake): 0.34 ± 0.08 %ID/g | tissue uptake at 1 h ([2]; heart, Hs766T xenograft, read-out: Heart uptake): 0.9 ± 0.25 %ID/g | tissue uptake at 1 h ([2]; heart, Panc1005 xenograft, read-out: Heart uptake): 0.2 ± 0.02 %ID/g | tissue uptake at 1 h ([2]; heart, Su8686 xenograft, read-out: Heart uptake): 0.25 ± 0.06 %ID/g | tissue uptake at 1 h ([2]; kidney, AsPC1 xenograft, read-out: Kidney uptake): 59.6 ± 2.86 %ID/g | tissue uptake at 1 h ([2]; kidney, BxPC3 xenograft, read-out: Kidney uptake): 59 ± 7.17 %ID/g | tissue uptake at 1 h ([2]; kidney, CFPAC xenograft, read-out: Kidney uptake): 69.1 ± 4.56 %ID/g | tissue uptake at 1 h ([2]; kidney, Hs766T xenograft, read-out: Kidney uptake): 52.6 ± 4.07 %ID/g | tissue uptake at 1 h ([2]; kidney, Panc1005 xenograft, read-out: Kidney uptake): 67 ± 6.9 %ID/g | tissue uptake at 1 h ([2]; kidney, Su8686 xenograft, read-out: Kidney uptake): 37.7 ± 2.64 %ID/g | tissue uptake at 1 h ([2]; liver, AsPC1 xenograft, read-out: Liver uptake): 1.59 ± 0.07 %ID/g | tissue uptake at 1 h ([2]; liver, BxPC3 xenograft, read-out: Liver uptake): 0.42 ± 0.02 %ID/g | tissue uptake at 1 h ([2]; liver, CFPAC xenograft, read-out: Liver uptake): 0.43 ± 0.09 %ID/g | tissue uptake at 1 h ([2]; liver, Hs766T xenograft, read-out: Liver uptake): 0.89 ± 0.21 %ID/g | tissue uptake at 1 h ([2]; liver, Panc1005 xenograft, read-out: Liver uptake): 0.29 ± 0.03 %ID/g | tissue uptake at 1 h ([2]; liver, Su8686 xenograft, read-out: Liver uptake): 0.34 ± 0.06 %ID/g | tissue uptake at 1 h ([2]; lung, AsPC1 xenograft, read-out: Lung uptake): 2.78 ± 0.13 %ID/g | tissue uptake at 1 h ([2]; lung, BxPC3 xenograft, read-out: Lung uptake): 0.7 ± 0.04 %ID/g | tissue uptake at 1 h ([2]; lung, CFPAC xenograft, read-out: Lung uptake): 0.89 ± 0.2 %ID/g | tissue uptake at 1 h ([2]; lung, Hs766T xenograft, read-out: Lung uptake): 1.71 ± 0.55 %ID/g | tissue uptake at 1 h ([2]; lung, Panc1005 xenograft, read-out: Lung uptake): 0.54 ± 0.05 %ID/g | tissue uptake at 1 h ([2]; lung, Su8686 xenograft, read-out: Lung uptake): 0.76 ± 0.16 %ID/g | tissue uptake at 1 h ([2]; muscle, AsPC1 xenograft, read-out: Muscle uptake): 0.41 ± 0.03 %ID/g | tissue uptake at 1 h ([2]; muscle, BxPC3 xenograft, read-out: Muscle uptake): 0.18 ± 0.01 %ID/g | tissue uptake at 1 h ([2]; muscle, Hs766T xenograft, read-out: Muscle uptake): 0.46 ± 0.13 %ID/g | tissue uptake at 1 h ([2]; muscle, Panc1005 xenograft, read-out: Muscle uptake): 0.11 ± 0.01 %ID/g | tissue uptake at 1 h ([2]; muscle, Su8686 xenograft, read-out: Muscle uptake): 0.16 ± 0.04 %ID/g | tissue uptake at 1 h ([2]; pancreas, AsPC1 xenograft, read-out: Pancreas uptake): 0.65 ± 0.04 %ID/g | tissue uptake at 1 h ([2]; pancreas, BxPC3 xenograft, read-out: Pancreas uptake): 0.25 ± 0.02 %ID/g | tissue uptake at 1 h ([2]; pancreas, CFPAC xenograft, read-out: Pancreas uptake): 0.32 ± 0.07 %ID/g | tissue uptake at 1 h ([2]; pancreas, Hs766T xenograft, read-out: Pancreas uptake): 0.61 ± 0.22 %ID/g | tissue uptake at 1 h ([2]; pancreas, Panc1005 xenograft, read-out: Pancreas uptake): 0.21 ± 0.03 %ID/g | tissue uptake at 1 h ([2]; pancreas, Su8686 xenograft, read-out: Pancreas uptake): 0.22 ± 0.05 %ID/g | tissue uptake at 1 h ([2]; small intestine, AsPC1 xenograft, read-out: Small intestine uptake): 1.12 ± 0.08 %ID/g | tissue uptake at 1 h ([2]; small intestine, BxPC3 xenograft, read-out: Small intestine uptake): 0.32 ± 0.02 %ID/g | tissue uptake at 1 h ([2]; small intestine, Hs766T xenograft, read-out: Small intestine uptake): 0.62 ± 0.02 %ID/g | tissue uptake at 1 h ([2]; small intestine, Panc1005 xenograft, read-out: Small intestine uptake): 0.25 ± 0.03 %ID/g | tissue uptake at 1 h ([2]; small intestine, Su8686 xenograft, read-out: Small intestine uptake): 0.29 ± 0.05 %ID/g | tissue uptake at 1 h ([2]; spleen, AsPC1 xenograft, read-out: Spleen uptake): 1.61 ± 0.11 %ID/g | tissue uptake at 1 h ([2]; spleen, BxPC3 xenograft, read-out: Spleen uptake): 0.64 ± 0.05 %ID/g | tissue uptake at 1 h ([2]; spleen, CFPAC xenograft, read-out: Spleen uptake): 0.87 ± 0.15 %ID/g | tissue uptake at 1 h ([2]; spleen, Hs766T xenograft, read-out: Spleen uptake): 2.75 ± 0.65 %ID/g | tissue uptake at 1 h ([2]; spleen, Panc1005 xenograft, read-out: Spleen uptake): 0.52 ± 0.05 %ID/g | tissue uptake at 1 h ([2]; spleen, Su8686 xenograft, read-out: Spleen uptake): 0.6 ± 0.16 %ID/g | tissue uptake at 1 h ([2]; tumor, 50 uCi, CFPAC xenograft, read-out: Tumor uptake): 2.4 ± 0.2 %ID/g | tissue uptake at 1 h ([2]; tumor, AsPC1 xenograft, read-out: Tumor uptake): 4.01 ± 0.46 %ID/g | tissue uptake at 1 h ([2]; tumor, BxPC3 xenograft, read-out: Tumor uptake): 2.72 ± 0.37 %ID/g | tissue uptake at 1 h ([2]; tumor, Hs766T xenograft, read-out: Tumor uptake): 7.97 ± 2.83 %ID/g | tissue uptake at 1 h ([2]; tumor, Panc1005 xenograft, read-out: Tumor uptake): 5.31 ± 0.9 %ID/g | tissue uptake at 1 h ([2]; tumor, Su8686 xenograft, read-out: Tumor uptake): 7.66 ± 1 %ID/g | tissue to tissue ratio at 1 h ([2]; tumor/blood, AsPC1 xenograft, read-out: Tumor/blood ratio): 1.2 ± 0.06 | tissue to tissue ratio at 1 h ([2]; tumor/blood, BxPC3 xenograft, read-out: Tumor/blood ratio): 4.86 ± 0.92 | tissue to tissue ratio at 1 h ([2]; tumor/blood, CFPAC xenograft, read-out: Tumor/blood ratio): 4.53 ± 0.9 | tissue to tissue ratio at 1 h ([2]; tumor/blood, Hs766T xenograft, read-out: Tumor/blood ratio): 5.47 ± 0.81 | tissue to tissue ratio at 1 h ([2]; tumor/blood, Panc1005 xenograft, read-out: Tumor/blood ratio): 12.9 ± 2.38 | tissue to tissue ratio at 1 h ([2]; tumor/blood, Su8686 xenograft, read-out: Tumor/blood ratio): 14.2 ± 3.89 | tissue to tissue ratio at 1 h ([2]; tumor/muscle, AsPC1 xenograft, read-out: Tumor/Muscle ratio): 9.95 ± 1.49 | tissue to tissue ratio at 1 h ([2]; tumor/muscle, BxPC3 xenograft, read-out: Tumor/Muscle ratio): 15.2 ± 2.14 | tissue to tissue ratio at 1 h ([2]; tumor/muscle, CFPAC xenograft, read-out: Tumor/Muscle ratio): 12.1 ± 1.45 | tissue to tissue ratio at 1 h ([2]; tumor/muscle, Hs766T xenograft, read-out: Tumor/Muscle ratio): 17.2 ± 2.33 | tissue to tissue ratio at 1 h ([2]; tumor/muscle, Panc1005 xenograft, read-out: Tumor/Muscle ratio): 50.1 ± 10.2 | tissue to tissue ratio at 1 h ([2]; tumor/muscle, Su8686 xenograft, read-out: Tumor/Muscle ratio): 58 ± 11.5 | tissue to tissue ratio at 1 h ([2]; tumor/pancreas, AsPC1 xenograft, read-out: Tumor/Pancreas ratio): 6.23 ± 0.65 | tissue to tissue ratio at 1 h ([2]; tumor/pancreas, BxPC3 xenograft, read-out: Tumor/Pancreas ratio): 11 ± 1.71 | tissue to tissue ratio at 1 h ([2]; tumor/pancreas, CFPAC xenograft, read-out: Tumor/Pancreas ratio): 8.68 ± 1.24 | tissue to tissue ratio at 1 h ([2]; tumor/pancreas, Hs766T xenograft, read-out: Tumor/Pancreas ratio): 13.8 ± 2.3 | tissue to tissue ratio at 1 h ([2]; tumor/pancreas, Panc1005 xenograft, read-out: Tumor/Pancreas ratio): 26.9 ± 5.62 | tissue to tissue ratio at 1 h ([2]; tumor/pancreas, Su8686 xenograft, read-out: Tumor/Pancreas ratio): 39.8 ± 7.21 | Muscle uptake [3]: 0.21 ± 0.04 %ID/g | Small intestine uptake [3]: 0.51 ± 0.10 %ID/g | SUV [4]: 1.31 ± 0.11 SUV
